From PMC6235670, “An mTOR Signaling Modulator Suppressed Heterotopic Ossification of Fibrodysplasia Ossificans Progressiva” (Stem Cell Reports, 2018)

System: FOP-ACVR1 (R206H) conditional transgenic mice
Experimental: MTOR s604 […]tt […]at […]
Cardiotoxin-induced HO model in human FOP-ACVR1 conditional transgenic mice. Female hFOP-ACVR1 conditional transgenic mice (Beard et al., 2006; Hino et al., 2017; Ohnishi et al., 2014; Yamada et al., 2013) (f5-6 offspring of chimeric mice, age- and body weight- matched between groups) were used between 16 and 20 weeks of age. Mice were administered 2 mg/mL Dox in their drinking water supplemented with 10 mg / mL sucrose to induce FOP-ACVR1. Cardiotoxin (9.1 µg/mouse, Latoxan) was injected into the right gastrocnemius muscle to initiate skeletal muscle injury and subsequent heterotopic bone formation (Chakkalakal et al., 2012). Test compounds (16% DMSO in 0.5 w/v% Methyl Cellulose 400) were intraperitoneally administered once a day, five times a week. Mice were analyzed three weeks after injection.
For X- ray images, mice were anesthetized with isoflurane (5% for induction, 2-3% for maintenance, Abbvie), immobilized and X-rayed using µFX-1000 (Fujifilm) or DX-50 (Faxitron Bioptics). µCT images were scanned using X-ray CT systems (inspeXio SMX-100CT, Shimadzu) and analyzed with TRI/3D-BON software (Ratoc System Engineering) according to the manufacturer's instructions. Four weeks after injection, the injected sites were harvested, fixed with 4% paraformaldehyde for 24 h, embedded in paraffin, and sectioned and stained with HE, von Kossa, Safranin O and anti-Collagen I antibody as previously described ( Hino et al., 2015; U med a […]
BMP-7-induced HO model mice. […] Mice were analyzed 2 weeks after injection. […]
Histological analysis of growth plates chondrocytes. Knee joints were obtained from BMP-7-injected and test compounds-administrated C57BL/6NJcl mice after 2 weeks treatment and fixed, paraffin-embedded, and sectioned and stained with Safranin O. The thickness of the proliferative and hypertrophic zones of the growth plate were measured using ImageJ software on images obtained using a Keyence microscope (Keyence A merica). […]

FC(F)(F)c1ccc(/C=C/c2nc(COc3ccc(CCCCn4ccnn4)cc3)co2)cc1 [TAK 165, mubritinib]
body weight change compared with vehicle (5 mg/kg i.p.): No apparent differences | von Kossa or COL1 staining of CTX-injected site (5 mg/kg i.p.): less positive staining | heterotopic ossification (heterotopic bone volume) (5 mg/kg i.p. once daily, five times a week, 3 weeks after CTX): significantly suppressed
